Laboratory results published in patent US20230242530A1, “8-(AZETIDIN-1-YL)-[1,2,4]TRIAZOLO[1,5-A]PYRIDINYL COMPOUNDS, COMPOSITIONS AND METHODS OF USE THEREOF” (Genentech, Inc., priority 2016, published 2023).

Tests used:
[1] = molecular target: T1, isolated recombinant JAK1 kinase domain (Homo sapiens, UniProt P23458); assay: JAK enzyme assay, JAK1 kinase domain (Caliper LabChip); type: biochemical; conditions: 1.5 nM JAK1, ATP 25 μM, Morrison tight binding model
T1 construct: isolated recombinant JAK1 and JAK2 kinase domain
Method: (§1) JAK Enzyme Assays were Carried Out as Follows:
(§2) The activity of the isolated recombinant JAK1 and JAK2 kinase domain was measured by monitoring phosphorylation of a peptide derived from JAK3 (Val-Ala-Leu-Val-Asp-Gly-Tyr-Phe-Arg-Leu-Thr-Thr, fluorescently labeled on the N-terminus with 5-carboxyfluorescein) using the Caliper LabChip® technology (Caliper Life Sciences, Hopkinton, Mass.). […] Reactions were incubated at 22 °C in 384-well polypropylene microtiter plates for 30 minutes and then stopped by addition of 25 μL of an EDTA containing solution (100 mM HEPES buffer (pH 7.2), 0.015% Brij-35, 150 mM EDTA), resulting in a final EDTA concentration of 50 mM. After termination of the kinase reaction, the proportion of phosphorylated product was determined as a fraction of total peptide substrate using the Caliper LabChip® 3000 according to the manufacturer's specifications. Ki values were then determined using the Morrison tight binding model (Morrison, J. F., Biochim. Biophys. Acta. 185:269-296 (1969); William, J. W. and Morrison, J. F., Meth. Enzymol., 63:437-467 (1979)) modified for ATP-competitive inhibition [Ki=Ki,app/(1+[ATP]/Km,app)].

[2] = molecular target: T2, isolated recombinant JAK2 kinase domain (Homo sapiens, UniProt O60674); assay: JAK enzyme assay, JAK2 kinase domain (Caliper LabChip); type: biochemical; conditions: 0.2 nM JAK2, ATP 25 μM, Morrison tight binding model
T2 construct: isolated recombinant JAK1 and JAK2 kinase domain
Method: as §1, §2

[3] = system: JAK1-dependent STAT6 phosphorylation downstream of IL-13 stimulation in BEAS-2B cells; assay: JAK1 pathway assay in cell lines: IL-13 p-STAT6 BEAS-2B; type: cell-based; conditions: BEAS-2B human bronchial epithelial cells, 1 hr compound, IL-13 15 min, MSD readout
Method: JAK1 Pathway Assay in Cell Lines was Carried Out as Follows:
Inhibitor potency (EC50) was determined in cell-based assays designed to measure JAK1 dependent STAT phosphorylation. As noted above, inhibition of IL-4, IL-13, and IL-9 signalling by blocking the Jak/Stat signaling pathway can alleviate asthmatic symptoms in pre-clinical lung inflammation models (Mathew et al., 2001, J Exp Med 193(9): 1087-1096; Kudlacz et. al., 2008, Eur J. Pharmacol 582(1-3): 154-161).
In one assay approach, TF-1 human erythroleukemia cells obtained from the American Type Culture Collection (ATCC; Manassas, Va.) were used to measure JAK1-dependent STAT6 phosphorylation downstream of IL-13 stimulation. Prior to use in the assays, TF-1 cells were starved of GM-CSF overnight in OptiMEM medium (Life Technologies, Grand Island, N.Y.) supplemented with 0.5% charcoal/dextran stripped fetal bovine serum (FBS), 0.1 mM non-essential amino acids (NEAA), and 1 mM sodium pyruvate. The assays were run in 384-well plates in serum-free OptiMEM medium using 300,000 cells per well. In a second assay approach, BEAS-2B human bronchial epithelial cells obtained from ATCC were plated at 100,000 cells per well of a 96-well plate one day prior to the experiment. The BEAS-2B assay was run in complete growth medium (bronchial epithelial basal medium plus bulletkit; Lonza; Basel, Switzerland).
Test compounds were serially diluted 1:2 in DMSO and then diluted 1:50 in medium just before use. Diluted compounds were added to the cells, for a final DMSO concentration of 0.2%, and incubated for 30 mi (for the TF-1 assay) or 1 hr (for the BEAS-2B assay) at 37 QC. Then, cells were stimulated with human recombinant cytokine at their respective EC90 concentrations, as previously determined for each individual lot. Cells were stimulated with IL-13 (R&D Systems, Minneapolis, Minn.) for 15 min at 37 °C. The TF-1 cell reactions were stopped by the direct addition of 10× lysis buffer (Cell Signaling Technologies, Danvers, Mass.), whereas the BEAS-2B cell incubations were halted by the removal of medium and addition of 1× lysis buffer. The resultant samples were frozen in the plates at −80 °C. Compound mediated inhibition of STAT6 phosphorylation was measured in the cell lysates using MesoScale Discovery (MSD) technology (Gaithersburg, Md.). EC50 values were determined as the concentration of compound required for 50% inhibition of STAT phosphorylation relative to that measured for the DMSO control.

T2 sequence (O60674 849-1124 limits assumed): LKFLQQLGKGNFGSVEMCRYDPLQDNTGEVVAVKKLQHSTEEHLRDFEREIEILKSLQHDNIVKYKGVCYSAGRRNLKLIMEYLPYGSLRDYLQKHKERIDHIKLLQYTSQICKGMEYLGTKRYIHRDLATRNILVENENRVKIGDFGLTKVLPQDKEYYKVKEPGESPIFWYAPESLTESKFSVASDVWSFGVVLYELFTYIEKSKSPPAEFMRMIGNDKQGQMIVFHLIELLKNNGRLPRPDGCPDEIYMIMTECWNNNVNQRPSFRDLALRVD
T1 sequence (P23458 875-1153 limits assumed): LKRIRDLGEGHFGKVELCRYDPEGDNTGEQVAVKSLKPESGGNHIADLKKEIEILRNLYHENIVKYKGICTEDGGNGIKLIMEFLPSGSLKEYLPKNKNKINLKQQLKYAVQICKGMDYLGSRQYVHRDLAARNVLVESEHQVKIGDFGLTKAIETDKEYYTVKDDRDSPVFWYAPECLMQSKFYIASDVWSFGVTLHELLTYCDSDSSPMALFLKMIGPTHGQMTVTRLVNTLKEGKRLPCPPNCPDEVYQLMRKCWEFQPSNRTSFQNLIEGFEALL

Row | Compound | Ki [1] | Ki [2] | EC50 [3]
1 | CSc1cnn(C2(CC#N)CN(c3cccn4nc(Nc5cnn(CC(=O)N6CCN(C)CC6)c5)nc34)C2)c1 [Example 119] | 0.3 nM | 0.2 nM | 16 nM
2 | COCCN1CCN(C(=O)Cn2cc(Nc3nc4c(N5CC(CC#N)(c6cccc(Cl)c6)C5)cccn4n3)cn2)CC1 [Example 81, 2-[3-(3-chlorophenyl)-1-[2-[[1-[2-[4-(2-methoxyethyl)piperazin-1-yl]-2-oxo-ethyl]pyrazol-4-yl]amino]-[1,2,4]triazolo[1,5-a]pyridin-8-yl]azetidin-3-yl]acetonitrile] | 0.4 nM | 1 nM | 27 nM
3 | CC(C)Sc1ccc(C2(CC#N)CN(c3cccn4nc(Nc5cnn(CC(=O)N6CCN(C)CC6)c5)nc34)C2)cc1 [Example 16, 2-[3-(4-isopropylsulfanylphenyl)-1-[2-[[1-[2-(4-methylpiperazin-1-yl)-2-oxo-ethyl]pyrazol-4-yl]amino]-[1,2,4]triazolo[1,5-a]pyridin-8-yl]azetidin-3-yl]acetonitrile] | 0.6 nM | 3.7 nM | 19 nM
4 | CN1CCN(C(=O)Cn2cc(Nc3nc4c(N5CC(CC#N)(c6cccc(Cl)c6)C5)cccn4n3)cn2)CC1 [Example 35, 2-[3-(3-chlorophenyl)-1-[2-[[1-[2-(4-methylpiperazin-1-yl)-2-oxo-ethyl]pyrazol-4-yl]amino]-[1,2,4]triazolo[1,5-a]pyridin-8-yl]azetidin-3-yl]acetonitrile] | 0.8 nM | 2.8 nM | 39 nM
5 | CCc1cnn(C2(CC#N)CN(c3cccn4nc(Nc5ccc(C(=O)N6CC7(CCN(C8COC8)CC7)C6)cc5)nc34)C2)c1 [Example 86, 2-[3-(4-ethylpyrazol-1-yl)-1-[2-[4-[7-(oxetan-3-yl)-2,7-diazaspiro[3.5]nonane-2-carbonyl]anilino]-[1,2,4]triazolo[1,5-a]pyridin-8-yl]azetidin-3-yl]acetonitrile] | 0.2 nM | 0.2 nM | 11 nM
6 | CN1CCN(C(=O)Cn2cc(Nc3nc4c(N5CC(CC#N)(n6cc(CNCC(F)(F)F)cn6)C5)cccn4n3)cn2)CC1 [Example 48] | 0.5 nM | 1.5 nM | 33 nM
7 | CCc1cnn(C2(CC#N)CN(c3cccn4nc(Nc5ccc6c(c5)CCN(C)C6)nc34)C2)c1 [Example 50, 2-[3-(4-ethylpyrazol-1-yl)-1-[2-[(2-methyl-3,4-dihydro-1H-isoquinolin-6-yl)amino]-[1,2,4]triazolo[1,5-a]pyridin-8-yl]azetidin-3-yl]acetonitrile] | 1.8 nM | 2 nM | 65 nM
8 | CCc1cnn(C2(CC#N)CN(c3cccn4nc(Nc5ccc(C(=O)N6CCN(C)CC6)c(OC)c5)nc34)C2)c1 [Example 106, 2-[3-(4-ethylpyrazol-1-yl)-1-[2-[3-methoxy-4-(4-methylpiperazine-1-carbonyl)anilino]-[1,2,4]triazolo[1,5-a]pyridin-8-yl]azetidin-3-yl]acetonitrile] | 0.5 nM | 1.3 nM | 40 nM
9 | N#CCC1(n2cc(C(F)(F)F)cn2)CN(c2cccn3nc(Nc4cnn(CC(=O)N5CCN(CCO)CC5)c4)nc23)C1 [Example 125, formic acid;2-[1-[2-[[1-[2-[4-(2-hydroxyethyl)piperazin-1-yl]-2-oxo-ethyl]pyrazol-4-yl]amino]-[1,2,4]triazolo[1,5-a]pyridin-8-yl]-3-[4-(trifluoromethyl)pyrazol-1-yl]azetidin-3-yl]acetonitrile] | 0.4 nM | 0.4 nM | 21 nM
10 | CN1CCN(C(=O)Cn2cc(Nc3nc4c(N5CC(CC#N)(c6ccc(Cl)cc6)C5)cccn4n3)cn2)CC1 [Example 7, 2-[3-(4-chlorophenyl)-1-[2-[[1-[2-(4-methylpiperazin-1-yl)-2-oxo-ethyl]pyrazol-4-yl]amino]-[1,2,4]triazolo[1,5-a]pyridin-8-yl]azetidin-3-yl]acetonitrile] | 37.2 nM | 50.4 nM | –

Further lines, with some results ahead:

Row | Ki [1] | Ki [2] | Compound | EC50 [3]
11 | 0.4 nM | 2.9 nM | CCc1ccc(C2(CC#N)CN(c3cccn4nc(Nc5cnn(CC(=O)N6CCN(C)CC6)c5)nc34)C2)cc1 [Example 60, 2-[3-(4-ethylphenyl)-1-[2-[[1-[2-(4-methylpiperazin-1-yl)-2-oxo-ethyl]pyrazol-4-yl]amino]-[1,2,4]triazolo[1,5-a]pyridin-8-yl]azetidin-3-yl]acetonitrile] | 19 nM
12 | 0.4 nM | 2 nM | CCc1cnn(C2(CC#N)CN(c3cccn4nc(Nc5cccc(C(=O)N6CCN(C)CC6)c5)nc34)C2)c1 [Example 75, 2-[3-(4-ethylpyrazol-1-yl)-1-[2-[3-(4-methylpiperazine-1-carbonyl)anilino]-[1,2,4]triazolo[1,5-a]pyridin-8-yl]azetidin-3-yl]acetonitrile] | 26 nM
13 | 0.6 nM | 2.5 nM | CN1CCN(C(=O)Cn2cc(Nc3nc4c(N5CC(CC#N)(N6CCN(C)CC6)C5)cccn4n3)cn2)CC1 [Example 9, 2-[3-(4-methylpiperazin-1-yl)-1-[2-[[1-[2-(4-methylpiperazin-1-yl)-2-oxo-ethyl]pyrazol-4-yl]amino]-[1,2,4]triazolo[1,5-a]pyridin-8-yl]azetidin-3-yl]acetonitrile] | 34 nM
14 | 1.3 nM | 5.8 nM | CN1CCN(C(=O)Cn2cc(Nc3nc4c(N5CC(CC#N)(N6CCC(C(F)(F)F)CC6)C5)cccn4n3)cn2)CC1 [Example 11] | 37 nM
15 | 40.2 nM | 64 nM | CCc1cnn(C2(CC#N)CN(c3cccn4nc(Nc5cnn(CCCO)c5)nc34)C2)c1 [Example 3, 2-[3-(4-ethyl-1H-pyrazol-1-yl)-1-(2-[[1-(3-hydroxypropyl)-1H-pyrazol-4-yl]amino]-[1,2,4]triazolo[1,5-a]pyridin-8-yl)azetidin-3-yl]acetonitrile] | –
16 | 9 nM | 15.5 nM | CCc1cnn(C2(CC#N)CN(c3nccn4nc(Nc5cn[nH]c5)nc34)C2)c1 [Example 153, 2-(1-(2-((1H-pyrazol-4-yl)amino)-[1,2,4]triazolo[1,5-a]pyrazin-8-yl)-3-(4-ethyl-1H-pyrazol-1-yl)azetidin-3-yl)acetonitrile] | –
17 | 17.5 nM | 32.8 nM | CCc1cnn(C2(CC#N)CN(c3cccn4nc(Nc5cn[nH]c5)nc34)C2)c1 [Example 2, 2-[3-(4-ethyl-1H-pyrazol-1-yl)-1-[2-[(1H-pyrazol-4-yl)amino]-[1,2,4]triazolo[1,5-a]pyridin-8-yl]azetidin-3-yl]acetonitrile] | –
18 | 9.5 nM | 15.7 nM | CN1CCN(C(=O)Cn2cc(Nc3nc4c(N5CC(CC#N)(n6cc(Br)cn6)C5)cccn4n3)cn2)CC1 [Example 6, 2-[3-(4-bromo-1H-pyrazol-1-yl)-1-[2-([1-[2-(4-methylpiperazin-1-yl)-2-oxoethyl]-1H-pyrazol-4-yl]amino)-[1,2,4]triazolo[1,5-a]pyridin-8-yl]azetidin-3-yl]acetonitrile] | –
19 | 6.4 nM | 18.8 nM | CN1CCN(C(=O)Cn2cc(Nc3nc4c(N5CC(CC#N)(n6cc(I)cn6)C5)cccn4n3)cn2)CC1 [Example 89, 2-[3-(4-iodopyrazol-1-yl)-1-[2-[[1-[2-(4-methylpiperazin-1-yl)-2-oxo-ethyl]pyrazol-4-yl]amino]-[1,2,4]triazolo[1,5-a]pyridin-8-yl]azetidin-3-yl]acetonitrile] | –
